Earlier results on one compound are cited in patent US4916163A, “Spray-dried lactose formulation of micronized glyburide” (The Upjohn Company, priority 1985, dated 1990).

The structures appear in SMILES notation.

The test system of this data set is Type II (adult-onset) diabetes mellitus. Particulars: in words, background.

Consider `COc1ccc(Cl)cc1C(=O)NCCc1ccc(S(=O)(=O)NC(=O)NC2CCCCC2)cc1` [glyburide, N-[4-(β-[2-methoxy-5-chloro-benzamido]-ethyl)-benzenesulfonyl]-N'-cyclohexyl-urea], for which the “Reduction of serum glucose concentrations” value is recorded as “effective in reducing serum glucose concentrations”.
